From patent US7009051B2, “4-(2-pyridyl) piperazines having 5HT7 receptor agonist activity” (Pfizer Inc, priority 2001, dated 2006)
Where a name gives a salt, the structure may show the parent alone.

melting point: 141 to 143 °C
Structure (SMILES): c1cncc(COc2cccc(N3CCNCC3)n2)c1 (as salt: HCl) [II, 1-[6-(Pyridin-3-ylmethoxy)-pyridin-2-yl]-piperazine]
